From ChEMBL document CHEMBL1201862, “PubChem BioAssay data set” (2004)
Calls of active or inactive are those of the source.

Key:
Beta-lactamase [1] = molecular target: Beta-lactamase (Pseudomonas aeruginosa, UniProt Q79MP6);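 note: biochemical dose-response test of metallo-beta-lactamase enzyme inhibition, read out by epi-absorbance; purified recombinant IMP-1 metallo-beta-lactamase with nitrocefin as substrate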
Beta Lactamase [2] = molecular target: T1, Beta Lactamase (Pseudomonas aeruginosa, UniProt Q932Y6);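 note: confirmatory high-throughput screen measuring VIM-2 metallo-beta-lactamase inhibition by epi-absorbance in dose response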
T1 sequence (Q932Y6 whole entry): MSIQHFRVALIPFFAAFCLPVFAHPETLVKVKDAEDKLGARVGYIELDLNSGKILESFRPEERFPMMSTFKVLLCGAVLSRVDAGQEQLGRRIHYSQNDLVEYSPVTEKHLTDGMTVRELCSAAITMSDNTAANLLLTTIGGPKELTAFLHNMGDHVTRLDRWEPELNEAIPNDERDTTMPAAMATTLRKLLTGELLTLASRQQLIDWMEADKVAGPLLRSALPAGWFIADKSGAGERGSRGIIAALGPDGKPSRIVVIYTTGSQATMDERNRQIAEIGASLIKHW

Beta-lactamase [3] = molecular target: Beta-lactamase (Salmonella choleraesuis (strain SC-B67), UniProt Q5J463)
Beta-lactamase (Salmonella choleraesuis (strain SC-B67), UniProt Q5J463), sequence (Q5J463 whole entry): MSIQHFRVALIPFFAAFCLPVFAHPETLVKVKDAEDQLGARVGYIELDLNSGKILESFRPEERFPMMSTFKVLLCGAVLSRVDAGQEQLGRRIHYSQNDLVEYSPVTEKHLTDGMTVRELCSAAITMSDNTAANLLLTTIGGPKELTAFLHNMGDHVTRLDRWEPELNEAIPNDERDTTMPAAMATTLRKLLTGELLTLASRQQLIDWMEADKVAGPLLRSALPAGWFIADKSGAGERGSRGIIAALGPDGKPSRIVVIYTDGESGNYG

[4] = molecular target: T2, Endoribonuclease toxin MazF (Escherichia coli K-12, UniProt P0AE70); test: substrate-only fluorescence increase artefacts – biochemical, single-stranded RNase substrate, counter-screen for MazEF activator project, dose response (AID 588502); format: functional
T2 sequence (P0AE70 whole entry): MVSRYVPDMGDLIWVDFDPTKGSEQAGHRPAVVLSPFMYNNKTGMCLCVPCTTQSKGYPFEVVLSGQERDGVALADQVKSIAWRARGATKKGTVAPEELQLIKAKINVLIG

[5] = molecular target: T2, Endoribonuclease toxin MazF; test: activation of MazEF endoribonuclease cleavage – biochemical, fluorescence, single-stranded RNA substrate, uHTS hits, dose response (AID 588481); format: functional
cells = format: functional, cell-based
[6] = molecular target: Nuclear receptor subfamily 0 group B member 1 (Homo sapiens, UniProt P51843); format: functional, cell-based;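 note: HEK293T cells transfected with SF-1 and DAX-1 plus StAR promoter luciferase reporter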
Nuclear receptor subfamily 0 group B member 1, sequence (P51843 whole entry): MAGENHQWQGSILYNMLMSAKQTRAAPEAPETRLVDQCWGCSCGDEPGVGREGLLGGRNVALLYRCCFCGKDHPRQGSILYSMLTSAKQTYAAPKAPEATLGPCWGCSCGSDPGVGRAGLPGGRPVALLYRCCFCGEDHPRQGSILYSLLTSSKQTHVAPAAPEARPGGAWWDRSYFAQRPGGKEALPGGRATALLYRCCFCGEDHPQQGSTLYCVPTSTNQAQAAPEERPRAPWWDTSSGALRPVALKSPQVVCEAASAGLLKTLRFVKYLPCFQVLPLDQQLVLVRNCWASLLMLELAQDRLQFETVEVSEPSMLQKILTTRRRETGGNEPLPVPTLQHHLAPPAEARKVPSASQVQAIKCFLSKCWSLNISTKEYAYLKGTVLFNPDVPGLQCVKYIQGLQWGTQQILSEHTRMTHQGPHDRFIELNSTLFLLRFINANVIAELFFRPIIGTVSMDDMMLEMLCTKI

[7] = molecular target: Mitochondrial peptide methionine sulfoxide reductase (Bos taurus, UniProt P54149); test: Absorbance-based biochemical high throughput dose response assay for activators of Methionine sulfoxide reductase A (MsrA).; format: functional
Mitochondrial peptide methionine sulfoxide reductase, sequence (P54149 whole entry, the tested form may be a part): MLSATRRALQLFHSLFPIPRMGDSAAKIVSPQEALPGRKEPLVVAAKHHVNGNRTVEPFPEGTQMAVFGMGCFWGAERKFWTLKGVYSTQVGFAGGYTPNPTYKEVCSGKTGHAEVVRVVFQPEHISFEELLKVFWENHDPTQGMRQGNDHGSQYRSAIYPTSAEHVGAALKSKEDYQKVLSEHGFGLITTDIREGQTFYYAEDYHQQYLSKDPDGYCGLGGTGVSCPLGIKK

[8] = Fluorescence-based cell-based high throughput dose response assay for inhibitors of the interaction of nucleotide-binding oligomerization domain containing 2 (NOD2) and the receptor-interacting serine-threonine kinase 2 (RIPK2).; format: functional; details: Homo sapiens
[9] = molecular target: Glucose-6-phosphate 1-dehydrogenase (Homo sapiens, UniProt P11413); test: inhibition of Homo sapiens G6PD, dose series – biochemical, fluorescence, selectivity assay for P. falciparum G6PD inhibitor project, dose response (AID 504792); format: functional
Glucose-6-phosphate 1-dehydrogenase, sequence (P11413 whole entry): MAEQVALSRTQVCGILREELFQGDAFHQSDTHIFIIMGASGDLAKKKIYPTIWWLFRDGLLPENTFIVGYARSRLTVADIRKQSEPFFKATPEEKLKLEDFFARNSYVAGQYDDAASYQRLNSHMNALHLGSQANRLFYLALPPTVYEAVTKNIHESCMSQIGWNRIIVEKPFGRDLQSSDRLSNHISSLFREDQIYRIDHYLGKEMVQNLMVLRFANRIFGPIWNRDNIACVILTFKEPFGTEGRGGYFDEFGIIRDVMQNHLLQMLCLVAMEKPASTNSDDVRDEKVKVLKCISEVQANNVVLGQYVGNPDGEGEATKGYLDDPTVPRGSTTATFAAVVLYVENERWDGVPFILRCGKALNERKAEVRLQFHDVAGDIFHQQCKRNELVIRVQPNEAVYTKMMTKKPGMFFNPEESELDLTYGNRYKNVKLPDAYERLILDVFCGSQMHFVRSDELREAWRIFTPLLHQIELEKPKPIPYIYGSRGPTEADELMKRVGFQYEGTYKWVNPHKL

[10] = molecular target: SWI/SNF-related matrix-associated actin-dependent regulator of chromatin subfamily A member 2 (Homo sapiens, UniProt P51531); test: Luminescence-based cell-based high throughput dose response assay to identify activators of the function of SWI/SNF related, matrix associated, actin dependent regulator of chromatin, subfamily a, member 2 (SMARCA2, BRM).; format: functional
SWI/SNF-related matrix-associated actin-dependent regulator of chromatin subfamily A member 2, sequence (P51531 whole entry): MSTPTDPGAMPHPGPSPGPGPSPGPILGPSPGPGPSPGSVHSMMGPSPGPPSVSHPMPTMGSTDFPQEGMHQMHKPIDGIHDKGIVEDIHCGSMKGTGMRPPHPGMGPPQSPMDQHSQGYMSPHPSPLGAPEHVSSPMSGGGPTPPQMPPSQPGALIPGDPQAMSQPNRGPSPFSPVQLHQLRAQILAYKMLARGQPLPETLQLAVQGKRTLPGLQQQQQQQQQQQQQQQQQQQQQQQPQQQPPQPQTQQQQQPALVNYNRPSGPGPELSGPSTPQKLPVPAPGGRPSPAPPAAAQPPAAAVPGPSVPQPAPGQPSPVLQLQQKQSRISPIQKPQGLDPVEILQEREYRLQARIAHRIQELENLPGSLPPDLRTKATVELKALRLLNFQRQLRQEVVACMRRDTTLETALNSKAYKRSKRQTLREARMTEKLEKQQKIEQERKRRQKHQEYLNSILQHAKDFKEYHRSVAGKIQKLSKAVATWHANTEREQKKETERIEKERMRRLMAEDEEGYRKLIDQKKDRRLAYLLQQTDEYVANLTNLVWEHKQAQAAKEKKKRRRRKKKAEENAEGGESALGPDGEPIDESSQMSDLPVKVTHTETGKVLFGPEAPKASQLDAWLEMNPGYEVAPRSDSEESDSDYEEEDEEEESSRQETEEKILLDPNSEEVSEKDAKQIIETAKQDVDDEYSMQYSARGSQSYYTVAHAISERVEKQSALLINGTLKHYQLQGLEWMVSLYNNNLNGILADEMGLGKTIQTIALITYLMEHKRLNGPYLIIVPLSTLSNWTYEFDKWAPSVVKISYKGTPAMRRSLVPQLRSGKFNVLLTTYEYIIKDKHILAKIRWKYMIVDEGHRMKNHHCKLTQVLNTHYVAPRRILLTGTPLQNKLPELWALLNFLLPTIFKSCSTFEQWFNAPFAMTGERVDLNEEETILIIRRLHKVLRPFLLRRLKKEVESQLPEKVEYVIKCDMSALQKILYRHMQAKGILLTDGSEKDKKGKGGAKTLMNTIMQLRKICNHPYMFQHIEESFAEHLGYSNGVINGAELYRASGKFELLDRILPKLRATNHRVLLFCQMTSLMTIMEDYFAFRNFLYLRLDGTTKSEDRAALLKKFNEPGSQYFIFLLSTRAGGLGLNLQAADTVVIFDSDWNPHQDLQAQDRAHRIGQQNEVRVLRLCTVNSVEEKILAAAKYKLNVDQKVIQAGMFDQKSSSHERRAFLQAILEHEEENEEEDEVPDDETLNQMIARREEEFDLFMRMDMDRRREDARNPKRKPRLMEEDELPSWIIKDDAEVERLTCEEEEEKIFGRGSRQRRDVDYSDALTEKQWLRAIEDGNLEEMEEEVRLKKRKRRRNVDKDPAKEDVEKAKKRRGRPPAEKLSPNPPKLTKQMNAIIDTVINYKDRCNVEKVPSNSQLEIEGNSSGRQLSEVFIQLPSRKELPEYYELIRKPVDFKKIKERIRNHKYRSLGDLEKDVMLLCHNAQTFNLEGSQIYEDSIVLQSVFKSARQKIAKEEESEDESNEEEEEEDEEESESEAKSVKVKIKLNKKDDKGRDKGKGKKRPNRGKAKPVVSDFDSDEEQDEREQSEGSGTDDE

[11] = Counterscreen for activators of the function of SWI/SNF related, matrix associated, actin dependent regulator of chromatin, subfamily a, member 2 (SMARCA2, BRM): Luminescence-based cell-based high throughput dose response assay to identify non-selective compounds using the VP16 reporter assay.; format: functional
Beta Lactamase [12] = molecular target: T1, Beta Lactamase; test: BLA reporter interference, concentration series – BLA reporter cells, FRET fluorescence, artefact control for NOD2-RIPK2 interaction inhibitor project, dose response (AID 651552); format: functional, cell-based
Hexokinase = Hexokinase (Trypanosoma brucei, UniProt Q38C41); test: Confirmation assay for inhibitors of Trypanosoma brucei hexokinase 1-Analogue-first series. [Related pubchem assays (depositor defined):AID1430, AID1632, AID2516, AID2560, AID2579, AID2600, AID449725, AID492951]; format: functional
Hexokinase, sequence (Q38C41 whole entry): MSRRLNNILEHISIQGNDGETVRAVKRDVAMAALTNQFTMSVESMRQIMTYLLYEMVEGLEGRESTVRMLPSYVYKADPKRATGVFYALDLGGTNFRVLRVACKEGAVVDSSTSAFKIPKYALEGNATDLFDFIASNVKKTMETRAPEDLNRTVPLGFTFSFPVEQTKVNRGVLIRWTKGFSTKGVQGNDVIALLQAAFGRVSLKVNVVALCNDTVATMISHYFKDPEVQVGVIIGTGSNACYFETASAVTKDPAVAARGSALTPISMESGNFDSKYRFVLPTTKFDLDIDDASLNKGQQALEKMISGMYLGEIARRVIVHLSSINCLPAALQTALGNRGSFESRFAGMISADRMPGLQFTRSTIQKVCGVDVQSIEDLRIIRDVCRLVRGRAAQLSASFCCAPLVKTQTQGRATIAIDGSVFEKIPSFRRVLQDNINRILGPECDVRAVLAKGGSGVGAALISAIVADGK

[13] = molecular target: T3, Rac GTPase-activating protein 1 (Homo sapiens, UniProt Q9H0H5); test: blockers of MgcRacGAP-driven Rac1 GTP hydrolysis – biochemical, ADP Hunter fluorescence, primary and confirmatory, confirmation (AID 624330); format: functional
T3 sequence (Q9H0H5 whole entry): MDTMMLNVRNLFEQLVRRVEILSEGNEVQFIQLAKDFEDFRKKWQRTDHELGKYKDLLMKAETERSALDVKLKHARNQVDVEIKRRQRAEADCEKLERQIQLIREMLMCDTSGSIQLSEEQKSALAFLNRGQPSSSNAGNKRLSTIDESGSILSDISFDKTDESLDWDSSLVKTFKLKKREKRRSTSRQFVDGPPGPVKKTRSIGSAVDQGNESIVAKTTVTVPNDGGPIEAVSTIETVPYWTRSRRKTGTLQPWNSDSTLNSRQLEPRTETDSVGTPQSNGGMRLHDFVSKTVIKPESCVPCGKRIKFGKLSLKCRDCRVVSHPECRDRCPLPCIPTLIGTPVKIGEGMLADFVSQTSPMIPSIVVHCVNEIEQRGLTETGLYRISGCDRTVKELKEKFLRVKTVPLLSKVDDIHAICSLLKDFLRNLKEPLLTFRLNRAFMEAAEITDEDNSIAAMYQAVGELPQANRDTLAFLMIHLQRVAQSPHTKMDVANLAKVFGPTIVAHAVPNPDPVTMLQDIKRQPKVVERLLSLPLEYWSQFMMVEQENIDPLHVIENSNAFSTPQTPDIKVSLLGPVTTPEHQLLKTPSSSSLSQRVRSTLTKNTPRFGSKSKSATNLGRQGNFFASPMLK

[14] = LMP1-induced NF-kB luciferase signal inhibition – cell-based, EBV LMP1, dry powder, set 2, dose response (AID 624361); format: functional
[15] = inhibitors of EBV LMP1 NF-kappaB signaling – cell-based, luciferase reporter, luminescence, dry powder, set 2, dose response (AID 624376); format: functional
[16] = cytotoxicity in HEK293 background cells – cell-based, dry powder, set 2, counter-screen for EBV LMP1 inhibitor project, dose response (AID 624374); format: functional
[17] = TNFa-induced NF-kB reporter signal decrease – HEK293 LMP1 reporter cells, dry powder, set 2, selectivity assay for EBV LMP1 NF-kB inhibitor project, dose response (AID 624369); format: functional
Beta-galactosidase = Beta-galactosidase (Escherichia coli, UniProt Q8VNN2); test: Dose response counterscreen for EBI2 assay utilizing the enzyme, b-galactosidase.; format: functional
Vero = test: viability loss in Vero cells – cell-based, plate reader, cherry-pick samples, cytotoxicity control, dose response (AID 687020); format: functional; details: Chlorocebus sabaeus
[18] = molecular target: Fructose-bisphosphate aldolase (Mycobacterium tuberculosis, UniProt P9WQA3); test: Fluorescence-based biochemical high throughput dose response assay for inhibitors of the fructose-bisphosphate aldolase (FBA) of M. tuberculosis.; format: functional
Fructose-bisphosphate aldolase, sequence (P9WQA3 whole entry): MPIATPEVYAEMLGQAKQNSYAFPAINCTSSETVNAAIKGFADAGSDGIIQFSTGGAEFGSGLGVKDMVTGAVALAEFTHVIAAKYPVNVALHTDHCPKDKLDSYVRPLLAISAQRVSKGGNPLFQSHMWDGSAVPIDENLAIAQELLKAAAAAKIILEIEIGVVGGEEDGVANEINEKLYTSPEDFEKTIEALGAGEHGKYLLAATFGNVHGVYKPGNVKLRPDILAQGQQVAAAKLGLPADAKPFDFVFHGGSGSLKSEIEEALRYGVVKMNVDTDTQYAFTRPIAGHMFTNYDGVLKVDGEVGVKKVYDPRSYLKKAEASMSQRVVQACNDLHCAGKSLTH

Beta-lactamase (Pseudomonas aeruginosa, UniProt Q79MP6), sequence (Q79MP6 whole entry): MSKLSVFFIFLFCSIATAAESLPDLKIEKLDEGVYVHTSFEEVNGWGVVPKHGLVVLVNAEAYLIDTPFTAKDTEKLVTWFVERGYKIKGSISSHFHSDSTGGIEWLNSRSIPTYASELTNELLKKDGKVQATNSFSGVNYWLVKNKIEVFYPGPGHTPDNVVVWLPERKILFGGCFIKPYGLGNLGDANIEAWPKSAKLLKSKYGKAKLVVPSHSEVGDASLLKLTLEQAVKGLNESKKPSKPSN

Q: With `Oc1ccc2ccccc2c1-c1sc(Nc2ccccc2)n[n+]1-c1ccc(F)cc1` as the compound, how does the IC50 (Beta-lactamase [1]) read?
A: Its IC50 is 46.8 µM (inactive).

Q: What about the IC50 (Beta Lactamase [2]) of the same compound?
A: Its IC50 is 32 µM (inactive).

Q: What about the IC50 (Beta-lactamase [3]) of the same compound?
A: Its IC50 is 23.7 µM (inactive).

Q: And the EC50 [4]?
A: The EC50 was > 99 µM (inactive).

Q: What about the EC50 [5] of the same compound?
A: Its EC50 is > 99 µM (inactive).

Q: For `CC1CCc2sc(C(=O)NC(C)C3CCCO3)cc2C1` (configuration not stated), which IC50 (cells) is on record?
A: Its IC50 is > 67.5 µM (inactive).

Q: What about the IC50 [6] of the same compound?
A: The IC50 was > 67.5 µM (inactive).

Q: For `CC(=O)Nc1ccc2sn(-c3ccccc3)c(=O)c2c1`, which EC50 [7] is on record?
A: The EC50 was > 104 µM (inactive).

Q: What about the IC50 [8] of the same compound?
A: The IC50 was 6.19 µM (active).

Q: And the IC50 [9]?
A: Its IC50 is 12.1 µM (active).

Q: And the EC50 [10]?
A: The EC50 was > 91.2 µM (inactive).

Q: And the EC50 [11]?
A: Its EC50 is > 91.2 µM (inactive).

Q: And the IC50 (Beta Lactamase [12])?
A: Its IC50 is 23.4 µM (inactive).

Q: And the IC50 (Hexokinase)?
A: Its IC50 is 6.31 µM (active).

Q: What about the IC50 [13] of the same compound?
A: The IC50 was 53.3 µM (active).

Q: What does the source list for `COc1cccc(C(=O)Nc2ccc3c(c2)C(=O)N(C)C[C@H](OC)[C@@H](C)CN(CCc2ccccc2)[C@@H](C)CO3)c1`?
A: AbsAC35 [14]: 44.38 µM; AbsAC35 [15]: 39.75 µM; AbsAC35 [16]: 50.41 µM; AbsAC35 [17]: 55.16 µM

Q: With `CN(Cc1ccccc1)C(=O)COc1ccc2ccccc2c1` as the compound, how does the IC50 (Beta-galactosidase) read?
A: The IC50 was > 80 µM (inactive).

Q: Which AC50 (Vero) does the source give for `COc1ccc(NC(=O)N[C@H]2CC[C@@H](CCn3cc(C4(O)CCCC4)nn3)O[C@@H]2CO)cc1` here?
A: The AC50 was 36.7 µM (active).

Q: For `COc1ccc2oc(=O)c(C(=O)NCc3ccccn3)cc2c1`, which IC50 [18] is on record?
A: Its IC50 is 1.53 µM (active).
